Results on 18 molecules are retold here after US7238685B2, “Benzo-fused heterocycles as endothelin antagonists” (Actelion Pharmaceuticals Ltd., priority 2001, dated 2007).

Read-outs that look alike come from different tables or passages of the source.

Experiment [1] has as its target T1, human recombinant ETA receptors (Homo sapiens, UniProt P25101).
T1 construct: expressed in transfected cells; host or cells: CHO cells (microsomal membranes)
T1 sequence (P25101 21-427): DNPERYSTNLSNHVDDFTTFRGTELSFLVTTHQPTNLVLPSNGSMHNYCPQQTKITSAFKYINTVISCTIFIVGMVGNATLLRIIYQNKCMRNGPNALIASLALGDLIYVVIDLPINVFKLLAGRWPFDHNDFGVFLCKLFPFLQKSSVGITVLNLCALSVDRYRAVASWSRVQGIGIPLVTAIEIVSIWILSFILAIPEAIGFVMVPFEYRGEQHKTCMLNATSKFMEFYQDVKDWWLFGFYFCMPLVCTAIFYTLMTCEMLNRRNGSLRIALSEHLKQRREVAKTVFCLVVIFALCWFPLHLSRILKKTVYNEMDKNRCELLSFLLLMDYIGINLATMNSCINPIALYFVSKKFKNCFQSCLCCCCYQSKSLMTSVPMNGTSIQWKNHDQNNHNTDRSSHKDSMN
In words: Inhibition of endothelin binding to membranes from CHO cells carrying human ET receptors (ETA).

The target of experiment [2] is T2, human recombinant ETB receptors (Homo sapiens, UniProt P24530).
T2 construct: expressed in transfected cells; host or cells: CHO cells (microsomal membranes)
T2 sequence (P24530 27-442): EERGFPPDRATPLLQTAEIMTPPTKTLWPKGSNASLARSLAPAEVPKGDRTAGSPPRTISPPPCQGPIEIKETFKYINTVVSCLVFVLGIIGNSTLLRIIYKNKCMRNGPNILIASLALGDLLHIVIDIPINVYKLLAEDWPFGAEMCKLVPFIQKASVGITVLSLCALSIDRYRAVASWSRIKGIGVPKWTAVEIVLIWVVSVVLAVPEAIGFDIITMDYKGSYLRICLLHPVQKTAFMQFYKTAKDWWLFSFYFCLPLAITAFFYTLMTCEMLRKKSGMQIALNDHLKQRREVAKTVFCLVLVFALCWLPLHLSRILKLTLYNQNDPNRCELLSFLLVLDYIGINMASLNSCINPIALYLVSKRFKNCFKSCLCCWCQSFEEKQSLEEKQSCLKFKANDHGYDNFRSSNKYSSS
In words: Inhibition of endothelin binding to membranes from CHO cells carrying human ET receptors (ETB).

For `Cc1cc(C)nc(O[C@H](C(=O)O)[C@@]2(c3ccccc3)NCc3nnc(CC(=O)O)n3-c3ccccc32)n1` (racemic) [Example 27, (±)-(S*)-((6S*)-1-carboxymethyl-6-phenyl-5,6-dihydro-4H-2,3,5,10b-tetraaza-benzo[e]azulen-6-yl)-(4,6-dimethyl-pyrimidin-2-yloxy)-acetic acid], the half-maximal inhibitory concentration (IC50) worked out at 13 nM in experiment [1] and 126 nM in experiment [2].

In the case of `COc1cc(OC)nc(O[C@H](C(=O)O)[C@@]2(c3ccccc3)NCC(=O)N(C)c3ccccc32)n1` (racemic) [Example 39, (±)-(S*)-((5S*)-1-methyl-2-oxo-5-phenyl-2,3,4,5-tetrahydro-1H-benzo[e][1,4]di-azepin-5-yl)-(4,6-dimethoxy-pyrimidin-2-yloxy)-acetic acid], the IC50 came out at 29 nM in experiment [1] (read-out: IC50 ETA) and 701 nM in experiment [2] (read-out: IC50 ETB).

For `COc1cc(CN2C(=O)CN[C@](c3ccccc3)([C@H](Oc3nc(OC)cc(OC)n3)C(=O)O)c3ccccc32)cc(OC)c1` (racemic) [Example 40, (±)-(S*)-[(5S*)-1-(3,5-dimethoxy-benzyl)-2-oxo-5-phenyl-2,3,4,5-tetrahydro-1H-benzo[e][1,4]diazepin-5-yl]-(4,6-dimethoxy-pyrimidin-2-yloxy)-acetic acid], the 50% inhibitory concentration (IC50) in experiment [1] (read-out: IC50 ETA) is 8 nM; in experiment [2] (read-out: IC50 ETB), 52 nM.

Consider `Cc1cc(C)nc(O[C@H](C(=O)O)[C@@]2(c3ccccc3)NCC(=O)N(C)c3ccccc32)n1` (racemic) [Example 49, (±)-(S*)-(4,6-dimethyl-pyrimidin-2-yloxy)-((5S*)-1-methyl-2-oxo-5-phenyl-2,3,4,5-tetrahydro-1H-benzo[e][1,4]diazepin-5-yl)-acetic acid], for which the 50% inhibitory concentration (IC50) in experiment [1] (read-out: IC50 ETA) is 17 nM; in experiment [2] (read-out: IC50 ETB) it was 240 nM.

Turning to `Cc1cc(C)nc(O[C@H](C(=O)O)[C@@]2(c3ccccc3)NCC(=O)N(CC(=O)O)c3ccccc32)n1` (racemic) [Example 50, (±)-(S*)-((5S*)-1-Carboxymethyl-2-oxo-5-phenyl-2,3,4,5-tetrahydro-1H-benzo[e][1,4]diazepin-5-yl)-(4,6-dimethyl-pyrimidin-2-yloxy)-acetoc acid], the IC50 in experiment [1] (read-out: IC50 ETA) was found to be 12 nM; in experiment [2] (read-out: IC50 ETB), 507 nM.

With `Cc1cc(C)nc(O[C@H](C(=O)O)[C@@]2(c3ccccc3)NCC(=O)N(CCO)c3ccccc32)n1` (racemic) [Example 56, (±)-(S*)-(4,6-Dimethyl-pyrimidin-2-yloxy)-[(5S*)-1-(2-hydroxy-ethyl)-2-oxo-5-phenyl-2,3,4,5-tetrahydro-1H-benzo[e][1,4]diazepin-5-yl]-acetic acid], the half-maximal inhibitory concentration (IC50) in experiment [1] amounted to 4 nM; in experiment [2], 83 nM.

In the case of `COC(=O)c1ccc(CN2C(=O)CN[C@](c3ccccc3)([C@H](Oc3nc(C)cc(C)n3)C(=O)O)c3ccccc32)cc1` (racemic) [Example 58, (±)-4-{(5S*)-5-[(S*)-Carboxy-(4,6-dimethyl-pyrimidin-2-yloxy)-methyl]-2-oxo-5-phenyl-2,3,4,5-tetrahydro-benzo[e][1,4]diazepin-1-ylmethyl}-benzoic acid methyl ester], the half-inhibitory concentration (IC50) is 2 nM in experiment [1] (read-out: IC50 ETA) and 29 nM in experiment [2] (read-out: IC50 ETB).

In the case of `Cc1cc(C)nc(O[C@H](C(=O)O)[C@@]2(c3ccccc3)NCC(=O)N(CCc3cn(C)c4ccccc34)c3ccccc32)n1` (racemic) [Example 68], the half-maximal inhibitory concentration (IC50) in experiment [1] (read-out: IC50 ETA) stood at 1 nM; in experiment [2] (read-out: IC50 ETB), 4 nM.

In the case of `Cc1cc(C)nc(O[C@H](C(=O)O)[C@@]2(c3ccccc3)NCC(=O)N(CCc3ccccc3)c3ccccc32)n1` (racemic) [Example 78], the IC50 in experiment [1] (read-out: IC50 ETA) came to 3 nM; in experiment [2] (read-out: IC50 ETB), 23 nM.

As for `Cc1cc(C)c(CN2C(=O)CN[C@](c3ccccc3)([C@H](Oc3nc(C)cc(C)n3)C(=O)O)c3ccccc32)c(C)c1` (racemic) [Example 111], the half-maximal inhibitory concentration (IC50) in experiment [1] (read-out: IC50 ETA) worked out at 3 nM; in experiment [2] (read-out: IC50 ETB), 10 nM.

Turning to `Cc1cc(C)nc(O[C@H](C(=O)O)[C@@]2(c3ccccc3)NCC(=O)N(c3ccccc3)c3ccccc32)n1` (racemic) [Example 117, (±)-(S*)-(4,6-dimethyl-pyrimidin-2-yloxy)-[(5S*)-2-oxo-1,5-diphenyl-2,3,4,5-tetrahydro-1H-benzo[e][1,4]diazepin-5-yl]-acetic acid], the values for the IC50 in experiment [1] (read-out: IC50 ETA) and in experiment [2] (read-out: IC50 ETB) were 61 nM and 749 nM, respectively.

For `Cc1cc(C)nc(O[C@H](C(=O)O)[C@]2(c3ccccc3)c3ccccc3N(Cc3c(F)cc(F)cc3F)C(=O)CN2C)n1` (racemic) [Example 129, (±)-(S*)-(4,6-Dimethyl-pyrimidin-2-yloxy)-[(5S*)-4-methyl-2-oxo-5-phenyl-1-(2,4,6-trifluoro-benzyl)-2,3,4,5-tetrahydro-1H-benzo[e][1,4]diazepin-5-yl]-acetic acid], the IC50 was found to be 6 nM in experiment [1] (read-out: IC50 ETA) and 353 nM in experiment [2] (read-out: IC50 ETB).

As to `COc1cc(CN2C(=O)CN[C@](c3ccccc3)([C@H](Oc3nc(OC)cc(OC)n3)C(=O)O)c3cc(Cl)ccc32)cc(OC)c1` (racemic) [Example 167, (±)-(1S*)-[(5S*)-7-Chloro-1-(3,5-dimethoxy-benzyl)-2-oxo-5-phenyl-2,3,4,5-tetrahydro-1H-benzo[e][1,4]diazepin-5-yl]-(4,6-dimethoxy-pyrimidin-2-yloxy)-acetic acid], the IC50 in experiment [1] (read-out: IC50 ETA) turned out to be 36 nM; in experiment [2] (read-out: IC50 ETB) it was 947 nM.

On to `Cc1cc(C)nc(O[C@H](C(=O)O)[C@@]2(c3ccccc3)NCC(=O)N(C)c3ccc(Cl)cc32)n1` (racemic) [Example 170, (±)-(1S*)-((5S*)-7-Chloro-1-methyl-2-oxo-5-phenyl-2,3,4,5-tetra-hydro-1H-benzo[e][1,4]diazepin-5-yl)-(4,6-dimethyl-pyrimidin-2-yloxy)-acetic acid], for which the IC50 was found to be 15 nM in experiment [1] (read-out: IC50 ETA) and 368 nM in experiment [2] (read-out: IC50 ETB).

`Cc1cccc([C@]2([C@H](Oc3nc(C)cc(C)n3)C(=O)O)NCC(=O)N(C)c3ccccc32)c1` (racemic) [Example 187, (±)-(S*)-(4,6-Dimethyl-pyrimidin-2-yloxy)-[(5S*)-1-methyl-2-oxo-5-m-tolyl-2,3,4,5-tetrahydro-1H-benzo[e][1,4]diazepin-5-yl]-acetic acid]: the IC50 in experiment [1] (read-out: IC50 ETA) was 18 nM; in experiment [2] (read-out: IC50 ETB) it was 180 nM.

As to `Cc1cc(C)nc(O[C@H](C(=O)O)[C@@]2(c3cccc(-c4ccccc4)c3)NCC(=O)N(Cc3c(F)ccc(F)c3F)c3ccccc32)n1` (racemic) [Example 213], the values for the IC50 in experiment [1] (read-out: IC50 ETA) and in experiment [2] (read-out: IC50 ETB) were 3 nM and 29 nM, respectively.

As for `COc1ccc(CN2C(=O)CN[C@](c3ccc(F)c(C)c3)([C@H](Oc3nc(C)cc(C)n3)C(=O)O)c3ccccc32)cc1` (racemic) [Example 218, (±)-(S*)-(4,6-Dimethyl-pyrimidin-2-yloxy)-[(5S*)-5-(4-fluoro-3-methyl-phenyl)-1-(4-methoxy-benzyl)-2-oxo-2,3,4,5-tetrahydro-1H-benzo[e][1,4]diazepin-5-yl]-acetic acid], the figures for the IC50 in experiment [1] (read-out: IC50 ETA) and in experiment [2] (read-out: IC50 ETB) were 5 nM and 39 nM, respectively.

On to `CCCCc1ccc(CN2C(=O)CN[C@](c3cccc(CCCC)c3)([C@H](Oc3nc(C)cc(C)n3)C(=O)O)c3ccccc32)cc1` (racemic) [Example 223], for which the IC50 in experiment [1] (read-out: IC50 ETA) worked out at 7 nM; in experiment [2] (read-out: IC50 ETB), 12 nM.

In general, IC50 refers to the concentration at which inhibition is half-maximal.
